“And” between values parts separate entries of the source, which are not always exact repeats. Equal values may be shown once.
What was measured:
C. elegans [1] = assay: Lifespan of C. elegans fed on E. coli cultured with dapsone; type: in vivo, Caenorhabditis elegans; set-up: Mean lifespan (Mean ± SE): unit not given beside the values
Protocol: In order to identify the effect of dapsone on the extending of lifespan, the experiment was performed in the following order. At this time, since dapsone is not a water-soluble material, E. coli was cultured in the medium including dapsone and then was used as a feed for C. elegans. […] generation, and the experiment was performed as follows under the condition of 20° C. in order to provide the optimal growth environment: 1) A parent C. elegans of L4 stage was transferred to the medium containing dapsone and PABA, and the progeny of first generation was transferred to the new medium after four days to lay an egg for 4 to 5 hours. […] C. elegans, which […], was excluded from the statistical analysis. […] The significant difference of statistical average lifespan used Log-rank test.

H2O2 = assay: Hydrogen peroxide by Amplex Red assay in paraquat-treated C. elegans; type: in vivo; conditions: 250 mM paraquat for 1 hour; FIG. 11
Protocol: The effect of dapsone on ROS scavenging was measured by using Amplex Red hydrogen peroxide/peroxygenase detection kit (Molecular Probes, Eugene, Oreg.) [39] that were previously described in order to measure the effect of dapsone on ROS scavenging. Simply put, 150 C. elegans that fed only on PABA or fed on PABA and dapsone was treated with 250 mM of paraquat for 1 hour. 100 C. elegans were adjusted to be 50 ul at 96-well plate and then 50 ul of Amplex Red (200 uM) was added to each well. After maintaining at 22° C. for 90 minutes, the amount of hydrogen peroxide was measured at 540 nm of absorbance by using a plate reader (Tecan, infinite 200).

calcium = assay: Calcium amount in a cell, Fluo-4; type: cell-based; conditions: human diploid fibroblast, 1 mM PQ, FIG. 27
Protocol: HDF cell was cultured at 96-well plate and the calcium in cell was measured by using Fluo-4AM. […] The amount of Calcium in a cell was measured by using Fluo-4 (5 uM) that is a fluorescent material for labeling calcium and is well passed through a cell. The cell was cultured at 37° C. for 30 minutes and then maintained at a room temperature for 30 minutes without light in order for a complete de-esterification of AM ester in a cell: The fluorescent material that was left was removed except a cell by using HBSS containing 20 mM of HEPES (pH 7.4), and 100 ul of HBSS was added into wells containing cells, respectively. The fluorescent signal was measured at 494 nm for the excitation wavelength and 516 nm for the emission wavelength by using the multi-well fluorescence plate Eclipse fluorescence spectrophotometer (Varian, Calif., USA). The result was shown as Relative fluorescence units (RFUs).

mitochondria complex = assay: Mitochondria complex protein amount by Western blot in PQ-treated human diploid fibroblast; type: cell-based; conditions: 1 mM PQ 24 hours, FIG. 29A
Protocol: The protein amount of mitochondria constituent complex was measured by using Western Blot using Complex I (20 kDa ND6 subunit), Complex II (30 kDa FeS, non-heme iron protein, SDHB), Complex III (47 kDa core protein 2), Complex IV (18 kDa subunit IV), Complex V (55 kDa subunit a ATP synthase), and the like. […] The membrane potential (Δψm) of mitochondria used DiOC6. […] Since then, the above fibroblast was treated with 40 nM of DiOC6 for 15 minutes. The results were measured by using Cary Eclipse Fluorescence Spectrophotometer (Varian, Calif., USA) and the excitation wavelength and emission wavelength were measured at 480 nm and 520 nm, respectively.
The isolated sample was transferred to a nitrocellulose and analyzed through Western Blot using MS601 (Total OXPHOS Complexes Detection Kit, MitoSciences, containing antibodies against SDH30 subunit of complex II (5 μg/ml), Core2 subunit of complex III (0.2 μg/ml), COXII subunit of complex IV (2 μg/ml), and subunit α of F1-ATPase of complex V (0.2 μg/ml)), PCKpan-p, PCKα/β-p, PKCδ-p (Phospho-PKC antibody Sampler Kit, Cell Signaling Technology), PKC α, PCKβ, PKCδ (Life Technologies), β-Actin (Sigma), and the like. […] The results were shown through visualizing by using Autoradiographic film (Image Reader, LAS-3000Fujifilm, Japan).

C. elegans [2] = assay: Oxygen uptake rate of C. elegans (Clark-type oxygen electrode); type: in vivo; conditions: C. elegans treated with DDS; FIG. 10
Protocol: The oxygen uptake rate was measured by using the method disclosed in the theses (50, 51) using Clark-type oxygen electrode (782 Oxygen Meter, Strathkelvin Instruments, Glasgow, UK). […] Approximately 1500 C. elegans in 200 uL of S-basal buffer were added to Mitocell chamber with Clark-type oxygen electrode to measure the oxygen uptake rate for several minuets. A sample was carefully taken from the chamber and then twice homogenized at 5000 rpm for 20 seconds by using Precellys24 homogenizer with glass bead. The sample was centrifuged at 15000 g for 20 minutes and the protein in the supernatant was quantified by using BCA protein quantification kit.

SOD1 = assay: Western blot of SOD1 amount in human diploid fibroblast; type: cell-based; conditions: various concentrations of DDS, FIG. 25B
Protocol: Trolox that is well known as a water-soluble vitamin E was used as a positive control.
The isolated sample was transferred to a nitrocellulose and analyzed through Western Blot using MS601 (Total OXPHOS Complexes Detection Kit, MitoSciences, containing antibodies against SDH30 subunit of complex II (5 μg/ml), Core2 subunit of complex III (0.2 μg/ml), COXII subunit of complex IV (2 μg/ml), and subunit α of F1-ATPase of complex V (0.2 μg/ml)), PCKpan-p, PCKα/β-p, PKCδ-p (Phospho-PKC antibody Sampler Kit, Cell Signaling Technology), PKC α, PCKβ, PKCδ (Life Technologies), β-Actin (Sigma), and the like. The measurement was performed by using a horseradish […] secondary antibodies (Zymed) and ECL (Pierce). The results were shown through visualizing by using Autoradiographic film (Image Reader, LAS-3000Fujifilm, Japan).

mitochondria complex V = assay: Western blot of mitochondria complex V amount in C. elegans; type: in vivo; conditions: C. elegans treated with DDS; FIG. 8
Protocol: C. elegans was isolated and collected by using dense sucrose (Centrifugation) and was washed with S buffer solution to remove a contaminant. In order to isolate mitochondria, C. elegans was twice homogenized in MSM buffer solution (220 mM mannitol, 10 mM sucrose, 5 mM MOPS, pH 7.4, with KOH) containing 0.2% of BSA at 5000 rpm for 20 seconds by using Precellys24 Homogenizer (Medinova) and Glass bead. The residue and non-homogenized C. elegans were removed fro the homogenized C. elegans through a centrifuge (380 g, 5 min) by using MSM buffer solution. The precipitate of homogenous substance that was centrifuged at 4500 g for 5 minutes, i.e., mitochondria were prepared. The rest was prepared as a part of cytoplasm. […] The quantitation of protein was performed by using BCA protein detection kit (Pierce).
The lysates of C. elegans grown under appropriate condition (containing PABA alone or PABA and dapsone) were prepared. […] After transferring to a nitrocellulose, they were analyzed by using Western Blot using MS601 (subunit α of F1 of ATP synthase, Oxphos Complexes detection kit, Mitoscience, 1:1,000) and α-Tubulin (Sigma; 1:2,000) antibody. The result was detected by using ECL (Pierce) and a horseradish peroxidase-conjugated secondary antibody.

## Nc1ccc(S(=O)(=O)c2ccc(N)cc2)cc1 [DDS, 4,4′-diaminodiphenylsulfone]
C. elegans [1]; DDS after L4-stage and during the whole life, FIG. 3A, B
  average lifespan and maximum lifespan compared with the control: significantly increased
C. elegans [1]; strain N2, OP50 + PABA + DDS (2 mM) after L4 stage, Figure 1B, four trials
  Mean lifespan (Mean ± SE): 23.04 ± 0.7 and 34.26 ± 0.8 and 23.76 ± 0.6 and 18.87 ± 0.4
C. elegans [1]; strain N2, OP50 + PABA + DDS (2 mM) in the whole life, Figure 1A, two trials
  Mean lifespan (Mean ± SE): 23.07 ± 0.5 and 24.31 ± 0.6
C. elegans [1]; strain N2, OP50 + PABA + DDS, Figure 3F, two trials
  Mean lifespan (Mean ± SE): 23.72 ± 0.7 and 19.74 ± 0.6
C. elegans [1]; strain N2, feeding OP50 + 0.5 mM DDS, Figure S7
  Mean lifespan (Mean ± SE): 22.03 ± 0.6
C. elegans [1]; strain N2, feeding OP50 + 1 mM DDS, Figure S7
  Mean lifespan (Mean ± SE): 22.20 ± 0.6
C. elegans [1]; strain N2, feeding folP + DDS (bacteria lacking folP), Figure S2, three trials
  Mean lifespan (Mean ± SE): 16.90 ± 0.3 and 17.43 ± 0.4 and 17.87 ± 0.4
C. elegans [1]; strain daf-16(cf1038), OP50 + PABA + DDS (2 mM), Figure 2A, two trials
  Mean lifespan (Mean ± SE): 15.69 ± 0.5 and 17.40 ± 0.3
C. elegans [1]; strain pyk-1(ok1754), OP50 + PABA + DDS, Figure 3F, two trials
  Mean lifespan (Mean ± SE): 21.92 ± 0.8 and 23.37 ± 0.6
H2O2
  ROS (H2O2) generation by PQ: meaningfully suppresses
calcium
  amount of calcium increased by PQ: decreases
Mitochondria complex
  amount of mitochondria complex reduced by PQ: recover
C. elegans [2]
  oxygen uptake rate: meaningfully decreased
SOD1
  amount of SOD1: decreases
Mitochondria complex V
  amount of complex V: significantly decreased

From US20110152379A1, “COMPOSITION FOR CONTROL OF AGING AND/OR EXTENSION OF LIFE, CONTAINING DAPSONE AS ACTIVE INGREDIENT” (priority 2008, published 2011)
